# Measured values as given in patent US20120034613A1, “Apparatus and Method for Testing Relationships Between Gene Expression and Physical Appearance of Skin” (NSE Products, Inc., priority 2010, published 2012).
# Test system: EpidermFT™ Skin Model (EFT-400) full thickness skin cultures
# Test: Affymetrix GeneChip HG U133 Plus 2.0 microarray global gene expression, agent-exposed vs untreated skin cultures
# Assay type: cell-based, human
# Details: Salicin 0.5% vs Untreated Control, 24 hr treatment
structure (smiles),measurement,value
"OCc1ccccc1O[C@@H]1O[C@H](CO)[C@@H](O)[C@H](O)[C@H]1O [Salicin, 2-(Hydroxymethyl)phenyl β-D-glucospyranoside]",Fold change ING1 (209808_x_at),2.572
same,Fold change IRAK2 (231779_at),2.734
same,Fold change IRAK3 (220034_at),2.411
same,Fold change ITPRIP (225582_at),2.421
same,Fold change JHDM1D (225142_at),2.825
same,Fold change KCNA3 (207237_at),2.308
same,Fold change KCNE4 (222379_at),2.686
same,Fold change KCNE4 (1552508_at),2.802
same,Fold change KCNJ8 (205303_at),2.493
same,Fold change KCNJ8 (205304_s_at),2.387
same,Fold change KLF15 (231015_at),2.338
same,Fold change KLHL29 (229310_at),2.719
same,Fold change LCP1 (208885_at),2.513
same,Fold change LOC285628 (232504_at),2.636
same,Fold change LOC440028 (1562606_a_at),2.7
same,Fold change LOC729222 /// PPFIBP1 (214375_at),2.426
same,Fold change LOC100128821 /// ZEB2 (235593_at),2.365
same,Fold change LOC100132244 (229438_at),2.299
same,Fold change LPAR1 (204036_at),2.391
same,Fold change LPAR1 (204037_at),2.425
same,Fold change LPAR1 (204038_s_at),2.732
same,Fold change LPPR4 (213496_at),2.406
same,Fold change LRCH2 (227688_at),2.318
same,Fold change LRRK2 (229584_at),2.314
same,Fold change MAGEA4 (214254_at),2.513
same,Fold change MAP3K4 (216199_s_at),2.654
same,Fold change MAP3K5 (203836_s_at),2.356
same,Fold change MAP9 (220145_at),2.4529
same,Fold change MASP1 (232224_at),2.402
same,Fold change MASP1 (235770_at),2.324
same,Fold change MESDC1 (223264_at),2.618
same,Fold change MGST1 (239001_at),2.428
same,Fold change MMD (203414_at),2.313
same,Fold change MTHFD2L (220346_at),2.597
same,Fold change MYO3B (1552578_a_at),2.338
same,Fold change NAMPT (217738_at),2.668
same,Fold change NEGR1 (1553194_at),2.339
same,Fold change NEXN (226103_at),2.323
same,Fold change NFKB2 (207535_s_at),2.67
same,Fold change NFKBIZ (223217_s_at),2.35
same,Fold change NOVA1 (205794_s_at),2.682
same,Fold change NR4A1 (202340_x_at),2.338
same,Fold change NRP2 (228699_at),2.306
same,Fold change OLAH (222945_x_at),2.586
same,Fold change PAPPA (201981_at),2.727
same,Fold change PAPPA (224940_s_at),2.664
same,Fold change PAPPA (224941_at),2.737
same,Fold change PAPPA (228128_x_at),2.482
same,Fold change PAPPA (1559400_s_at),2.415
same,Fold change PCDH7 (210941_at),2.333
same,Fold change PCSK1 (205825_at),2.59
same,Fold change PDE4D (211840_s_at),2.429
same,Fold change PEG10 (212092_at),2.813
same,Fold change PF4 (206390_x_at),2.652
same,Fold change PGM2L1 (229256_at),2.478
same,Fold change PHLDA1 (217996_at),2.515
same,Fold change PHTF1 (215285_s_at),2.498
same,Fold change PI15 (229947_at),2.619
same,Fold change PID1 (219093_at),2.447
same,Fold change PID1 (237867_s_at),2.743
same,Fold change PISD (202392_s_at),2.402
same,Fold change PITPNC1 (238649_at),2.621
same,Fold change PLAUR (211924_s_at),2.357
same,Fold change PLEKHA3 (223370_at),2.302
same,Fold change PTGER4 (204897_at),2.525
same,Fold change PTGES (207388_s_at),2.768
same,Fold change PTGES (210367_s_at),2.519
same,Fold change PTGS1 (205128_x_at),2.327
same,Fold change PTGS1 (215813_s_at),2.306
same,Fold change PTHLH (206300_s_at),2.505
same,Fold change PTHLH (211756_at),2.599
same,Fold change PTPRG (204944_at),2.299
same,Fold change QKI (228540_at),2.426
same,Fold change RAB3B (205924_at),2.634
same,Fold change RAB3B (227123_at),2.514
same,Fold change RAB23 (220955_x_at),2.644
same,Fold change RABGGTB (209180_at),2.305
same,Fold change RABGGTB (213704_at),2.423
same,Fold change RAI14 (202052_s_at),2.503
same,Fold change RASSF8 (235996_at),2.788
same,Fold change RGS3 (203823_at),2.462
same,Fold change RGS5 (209070_s_at),2.7
same,Fold change RGS12 (242079_at),2.358
same,Fold change RHOQ (212122_at),2.398
same,Fold change SEC24A (212902_at),2.298
same,Fold change SEMA3A (206805_at),2.505
same,Fold change SETDB2 (235339_at),2.377
same,Fold change SGK1 (201739_at),2.419
same,Fold change SH3RF3 (228461_at),2.389
same,Fold change SHOX (207570_at),2.312
same,Fold change SLC6A15 (232263_at),2.365
same,Fold change SLC11A2 (237106_at),2.533
same,Fold change SLC20A1 (230494_at),2.526
same,Fold change SLC43A3 (210692_s_at),2.457
same,Fold change SLFN11 (226743_at),2.451
same,Fold change SLIT2 (209897_s_at),2.499
same,Fold change SNHG12 (223774_at),2.339
same,Fold change SOCS2 (203373_at),2.46
same,Fold change SPON1 (209437_s_at),2.36
same,Fold change SPON1 (213993_at),2.499
same,Fold change SQSTM1 (213112_s_at),2.447
same,Fold change ST3GAL1 (208322_s_at),2.644
same,Fold change ST3GAL1 (225033_at),2.64
same,Fold change STK17B (205214_at),2.309
same,Fold change SULF1 (212344_at),2.665
same,Fold change TAF1A (206613_s_at),2.359
same,Fold change TAGLN (205547_s_at),2.426
same,Fold change TBC1D1 (212350_at),2.386
same,Fold change TBC1D1 (227945_at),2.566
same,Fold change TGM2 (201042_at),2.351
same,Fold change THBS1 (201108_s_at),2.756
same,Fold change THBS1 (239336_at),2.417
same,Fold change THRAP3 (242163_at),2.62
same,Fold change TMEM38B (222735_at),2.489
